In ChEMBL document CHEMBL1201862, “PubChem BioAssay data set” (2004):
“And” between values parts separate entries of the source, which are not always exact repeats. Equal entries are not always repeated. The source made the active and inactive calls.

What was measured:
[1] = molecular target: T1, Mannose-6-phosphate isomerase (Homo sapiens, UniProt P34949); assay: MPI inhibition at elevated mannose 6-phosphate – biochemical, fluorescence intensity, high mannose 6-phosphate, primary screen (AID 1220)
T1 sequence (P34949 whole entry): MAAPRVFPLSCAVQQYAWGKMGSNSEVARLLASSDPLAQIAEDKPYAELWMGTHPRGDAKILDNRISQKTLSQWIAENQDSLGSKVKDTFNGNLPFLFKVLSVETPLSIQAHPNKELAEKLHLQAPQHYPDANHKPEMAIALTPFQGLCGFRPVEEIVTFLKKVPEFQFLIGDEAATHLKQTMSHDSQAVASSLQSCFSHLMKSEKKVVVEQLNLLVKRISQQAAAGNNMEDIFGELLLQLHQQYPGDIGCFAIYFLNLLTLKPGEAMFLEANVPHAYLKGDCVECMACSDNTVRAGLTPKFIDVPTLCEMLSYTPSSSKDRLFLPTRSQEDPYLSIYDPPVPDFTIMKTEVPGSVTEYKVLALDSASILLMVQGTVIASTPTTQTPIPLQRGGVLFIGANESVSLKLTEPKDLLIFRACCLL

[2] = molecular target: T2, Polyadenylate-binding protein 1 (Homo sapiens, UniProt P11940); assay: MLLE binding blockers, Cy5 peptide tracer – biochemical, fluorescence polarization, Cy5-PAM2 peptide, secondary, miRNA deadenylation inhibitor project, dose response (AID 602260); format: functional; settings: read-out: IC50_Mean
T2 sequence (P11940 whole entry, the tested form may be a part): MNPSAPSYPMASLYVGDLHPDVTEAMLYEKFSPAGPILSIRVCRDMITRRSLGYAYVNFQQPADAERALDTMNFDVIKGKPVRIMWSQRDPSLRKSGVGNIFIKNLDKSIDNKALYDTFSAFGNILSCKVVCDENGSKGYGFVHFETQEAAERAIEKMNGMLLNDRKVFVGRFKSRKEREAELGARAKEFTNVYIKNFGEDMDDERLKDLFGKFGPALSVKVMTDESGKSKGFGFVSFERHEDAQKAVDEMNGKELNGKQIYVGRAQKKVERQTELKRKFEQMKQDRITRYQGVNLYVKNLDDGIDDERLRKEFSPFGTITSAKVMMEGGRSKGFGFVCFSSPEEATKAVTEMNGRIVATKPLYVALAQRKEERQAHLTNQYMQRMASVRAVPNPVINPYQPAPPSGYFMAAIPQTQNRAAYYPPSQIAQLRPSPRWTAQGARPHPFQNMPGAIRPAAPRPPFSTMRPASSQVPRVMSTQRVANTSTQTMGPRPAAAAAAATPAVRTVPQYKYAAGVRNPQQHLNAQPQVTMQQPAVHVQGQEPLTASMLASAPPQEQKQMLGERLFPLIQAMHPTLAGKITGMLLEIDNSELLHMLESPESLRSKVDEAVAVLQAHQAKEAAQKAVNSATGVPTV

[3] = molecular target: T2, Polyadenylate-binding protein 1; assay: MLLE domain peptide-binding blockers, IC50 – biochemical, fluorescence polarization, FITC-PAM2 peptide, dose response (AID 602259); format: functional; settings: read-out: IC50_Mean
[4] = molecular target: T3, High affinity choline transporter 1 (Homo sapiens, UniProt Q9GZV3); assay: human choline transporter blockers, potency – cell-based, 5-point CRC, membrane potential dye, dose response (AID 504840); format: functional
T3 sequence (Q9GZV3 whole entry): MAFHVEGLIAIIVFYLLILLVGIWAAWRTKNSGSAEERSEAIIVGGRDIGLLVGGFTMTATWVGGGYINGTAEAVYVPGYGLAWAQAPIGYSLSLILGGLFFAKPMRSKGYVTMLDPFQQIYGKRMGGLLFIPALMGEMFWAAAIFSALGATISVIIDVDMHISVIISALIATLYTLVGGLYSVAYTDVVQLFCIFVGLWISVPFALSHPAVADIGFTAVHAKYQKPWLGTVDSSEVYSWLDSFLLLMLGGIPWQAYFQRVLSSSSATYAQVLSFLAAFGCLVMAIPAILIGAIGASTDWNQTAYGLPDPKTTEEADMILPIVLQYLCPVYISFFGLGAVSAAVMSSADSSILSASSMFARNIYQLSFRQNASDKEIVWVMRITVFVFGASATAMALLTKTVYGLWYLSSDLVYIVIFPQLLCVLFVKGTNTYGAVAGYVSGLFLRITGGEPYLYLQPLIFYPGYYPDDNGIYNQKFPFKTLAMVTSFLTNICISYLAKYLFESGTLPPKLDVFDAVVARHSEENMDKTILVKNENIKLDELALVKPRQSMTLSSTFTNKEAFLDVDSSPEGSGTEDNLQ

[5] = molecular target: T3, High affinity choline transporter 1; assay: human choline transporter blockers, potency – cell-based, 10-point CRC, membrane potential dye, dose response (AID 588401); format: functional;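 also: membrane potential dye fluorescence of choline-evoked depolarization via CHT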
Nonstructural protein 1 = Nonstructural protein 1 (Influenza A virus, UniProt Q194T2); format: functional, Influenza A virus (A/California/07/2009(H1N1))
Sequence of Nonstructural protein 1 (Q194T2 whole entry): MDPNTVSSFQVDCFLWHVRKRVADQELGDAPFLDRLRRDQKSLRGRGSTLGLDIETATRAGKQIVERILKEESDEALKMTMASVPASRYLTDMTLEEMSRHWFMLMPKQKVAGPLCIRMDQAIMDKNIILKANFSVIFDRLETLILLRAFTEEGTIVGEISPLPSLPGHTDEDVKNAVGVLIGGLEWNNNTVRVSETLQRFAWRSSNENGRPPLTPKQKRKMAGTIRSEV

cells [6] = format: functional, cell-based
cells [7] = format: functional, cell-based; remark: listed apart in the source
Cytochrome P450 2C9 = Cytochrome P450 2C9 (Homo sapiens, UniProt P11712); settings: Potency
Sequence of Cytochrome P450 2C9 (P11712 whole entry): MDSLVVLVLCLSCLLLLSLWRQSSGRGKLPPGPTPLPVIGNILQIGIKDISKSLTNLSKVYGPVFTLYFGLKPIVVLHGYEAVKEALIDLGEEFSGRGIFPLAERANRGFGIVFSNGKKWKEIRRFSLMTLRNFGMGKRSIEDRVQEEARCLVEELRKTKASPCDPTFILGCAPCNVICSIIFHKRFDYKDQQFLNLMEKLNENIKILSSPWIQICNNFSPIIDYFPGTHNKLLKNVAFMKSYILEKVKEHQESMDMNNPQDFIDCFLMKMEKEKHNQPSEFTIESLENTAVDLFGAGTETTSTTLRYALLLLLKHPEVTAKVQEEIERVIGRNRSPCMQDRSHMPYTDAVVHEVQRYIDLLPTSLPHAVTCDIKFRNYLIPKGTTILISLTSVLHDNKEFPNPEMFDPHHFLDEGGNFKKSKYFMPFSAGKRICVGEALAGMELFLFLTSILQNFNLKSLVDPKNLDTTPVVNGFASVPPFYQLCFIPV

BJ [8] = assay: BJ-TERT fibroblast viability loss – cell-based, RAS-independent, luminescence, dose response (AID 1933); format: functional; settings: Homo sapiens
BJ [9] = assay: cells; format: functional, cell-based; settings: Homo sapiens
BJ [10] = assay: BJ-TERT-LT-ST fibroblast viability loss – cell-based, RAS-independent, luminescence, dose response (AID 1935); format: functional; settings: Homo sapiens;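 also: BJ fibroblasts immortalized with TERT plus LT and ST oncogenes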
[11] = DRD fibroblast viability loss – cell-based, non-viral oncogenic, luminescence, dose response (AID 1934); format: functional; settings: Homo sapiens
Paired box protein Pax-8 = Paired box protein Pax-8 (Homo sapiens, UniProt Q06710); assay: PAX8 transcriptional activity inhibition in RMG-I – RMG-I cells, luciferase, cherry-pick, dose response (AID 687027); format: functional, cell-based;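 also: luciferase reporter driven by Pax8 target thyroperoxidase promoter measured by SteadyGlo luminescence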
Sequence of Paired box protein Pax-8 (Q06710 whole entry): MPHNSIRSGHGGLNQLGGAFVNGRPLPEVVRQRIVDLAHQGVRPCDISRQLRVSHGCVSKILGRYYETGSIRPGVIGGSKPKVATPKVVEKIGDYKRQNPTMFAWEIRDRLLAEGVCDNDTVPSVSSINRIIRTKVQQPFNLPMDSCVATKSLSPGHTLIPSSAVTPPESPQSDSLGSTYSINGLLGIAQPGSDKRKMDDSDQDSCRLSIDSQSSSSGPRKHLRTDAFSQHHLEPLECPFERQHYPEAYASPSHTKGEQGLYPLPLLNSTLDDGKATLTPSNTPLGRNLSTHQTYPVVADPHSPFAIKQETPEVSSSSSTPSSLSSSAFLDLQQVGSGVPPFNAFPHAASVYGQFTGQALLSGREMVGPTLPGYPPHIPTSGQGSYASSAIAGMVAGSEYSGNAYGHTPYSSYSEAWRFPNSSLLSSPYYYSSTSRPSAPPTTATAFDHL

[12] = general cell-killing toxicity readout – plate reader, dry powder samples, cytotoxicity control for PAX8 inhibitor project, dose response (AID 743021); format: functional, cell-based
[13] = blockers of HIV-1 envelope-mediated cell-cell fusion – cherry-pick, dose response (AID 652057); format: functional, cell-based
[14] = off-target signal loss in HeLa-CEM21 co-culture – HeLa F-luc CTL cells, cherry-picked, counter-screen for HIV-1 Env fusion inhibitor project, dose response (AID 652040); format: functional, cell-based;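 also: potency for signal decrease marking cytotoxic or nonspecific inhibition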
[15] = HIV-1 AD8 envelope cell-cell fusion blockers – cherry-pick, dose response (AID 652062); format: functional, cell-based;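 also: luciferase signal from cell-cell fusion driven by HIV-1 clade B AD8 Env; potency is for inhibitors of fusion seen as a drop in luminescence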
[16] = molecular target: T4, DNA repair protein RAD52 homolog (Homo sapiens, UniProt P43351); format: functional, biochemical
T4 sequence (P43351 whole entry): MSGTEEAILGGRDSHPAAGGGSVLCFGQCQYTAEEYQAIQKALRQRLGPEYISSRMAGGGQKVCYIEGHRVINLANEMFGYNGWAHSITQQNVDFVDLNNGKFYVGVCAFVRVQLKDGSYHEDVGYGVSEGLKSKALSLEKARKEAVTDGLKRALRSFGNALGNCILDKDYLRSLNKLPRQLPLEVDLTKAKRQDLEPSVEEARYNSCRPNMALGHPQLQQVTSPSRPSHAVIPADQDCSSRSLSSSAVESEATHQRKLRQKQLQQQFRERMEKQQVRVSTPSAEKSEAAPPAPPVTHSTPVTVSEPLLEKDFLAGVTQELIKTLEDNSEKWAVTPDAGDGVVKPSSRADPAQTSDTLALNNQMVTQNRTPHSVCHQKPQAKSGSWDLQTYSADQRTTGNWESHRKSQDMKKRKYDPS

[17] = blockers of HIV-1 ZM109 envelope-driven cell-cell fusion – HeLa effector, CEM target cells, luciferase, cherry-pick, dose response (AID 652058); format: functional, cell-based;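 also: luciferase signal from HIV-1 Env mediated cell-cell fusion of effector and target cells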
[18] = P. falciparum Dd2 growth inhibitors, dose response, SYBR Green, cherry-picked samples (AID 1159567); format: functional, cell-based
[19] = toxicity to human hepatoma HepG2 cells – cell-based, cherry-picked samples, cytotoxicity control, dose response (AID 1159577); format: functional
[20] = HPDE-C7 pancreatic duct cell viability loss – fluorescence, HTS (AID 430); format: functional, cell-based; settings: Homo sapiens
[21] = viability loss of HPDE-C7K cells – cell-based, fluorescence, HTS, primary screen (AID 431); format: functional; settings: Homo sapiens
[22] = Luminescence Cell-Based Dose Retest to Confirm Inhibitors of Cancer Stem Cells. [Related pubchem assays (depositor defined):AID2717, AID2721]; format: functional; settings: Homo sapiens
[23] = molecular target: T5, Ubiquitin-conjugating enzyme E2 N (Homo sapiens, UniProt P61088); format: functional;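 also: Dose-response confirmation in a TR-FRET assay detecting UBC13-driven polyubiquitin chain formation, inhibition measured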
T5 sequence (P61088 whole entry): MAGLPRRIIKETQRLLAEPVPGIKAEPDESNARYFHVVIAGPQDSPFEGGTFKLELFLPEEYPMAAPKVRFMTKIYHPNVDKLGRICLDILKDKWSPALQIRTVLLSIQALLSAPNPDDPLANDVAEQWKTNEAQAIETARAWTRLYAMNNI

Cytochrome P450 3A4 = Cytochrome P450 3A4 (Homo sapiens, UniProt P08684); settings: Potency;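 also: confirmatory qHTS run detecting inhibitors and substrates of CYP3A4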
Sequence of Cytochrome P450 3A4 (P08684 whole entry): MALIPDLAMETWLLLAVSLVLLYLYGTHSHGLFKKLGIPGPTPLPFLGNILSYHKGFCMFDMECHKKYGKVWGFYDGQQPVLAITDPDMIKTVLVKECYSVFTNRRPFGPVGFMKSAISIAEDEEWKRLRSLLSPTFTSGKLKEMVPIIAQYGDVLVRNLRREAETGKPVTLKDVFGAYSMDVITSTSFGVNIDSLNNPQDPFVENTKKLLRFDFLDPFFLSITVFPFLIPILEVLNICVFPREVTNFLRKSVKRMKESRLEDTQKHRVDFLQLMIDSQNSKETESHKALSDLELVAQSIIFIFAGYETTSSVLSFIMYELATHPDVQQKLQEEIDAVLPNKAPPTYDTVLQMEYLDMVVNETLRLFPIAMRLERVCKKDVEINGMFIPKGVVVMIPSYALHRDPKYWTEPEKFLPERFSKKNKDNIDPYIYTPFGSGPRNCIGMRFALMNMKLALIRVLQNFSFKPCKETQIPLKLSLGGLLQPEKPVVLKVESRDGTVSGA

SMILES: N#Cc1cc2c(nc1S)CCCCCC2
- IC50 [1]: > 50 µM (not active)
- IC50 [2]: > 66 µM (inactive)
- IC50 [3]: > 66 µM (inactive)

SMILES: Cn1c2c(c(=O)c3ccccc31)CCCC2
- IC50 [4]: 6.99 µM (active)
- IC50 [5]: 4.22 µM (active)

SMILES: CC(C)(C)Nc1c([N+](=O)[O-])ccc2c1=NC1(CCCCC1)[N+]=2[O-]
- IC50 [1]: > 50 µM (not active)
- IC50 (Nonstructural protein 1): 18.1 µM (active)

SMILES: COc1cc2c(cc1OC)C(C)N(S(=O)(=O)c1ccc(Cl)nc1)CC2 (stereo not drawn)
- EC50 (cells [6]): > 350 µM (not active)
- EC50 (cells [7]): > 350 µM (not active)

SMILES: COc1ccc(NC(=S)Nc2ccc3nccnc3c2)cc1
- IC50 [1]: > 50 µM (not active)

SMILES: O=C(c1ccc(F)cc1)N(Cc1cccs1)C1CCS(=O)(=O)C1 (stereo not drawn)
- EC50 (cells [6]): > 350 µM (not active)
- EC50 (cells [7]): > 350 µM (not active)

SMILES: C=CCOC(=O)C(C(C)=O)C(NC(=O)OC)c1cccc(F)c1 (stereo not drawn)
- AC50 (Cytochrome P450 2C9): 1 µM (inconclusive)

SMILES: NCCC[C@@H](CC(=O)N[C@@H]1CCCC[C@H]1C(=O)N[C@H](CC(=O)N[C@@H](CCC(=O)O)CC(=O)O)Cc1c[nH]c2ccccc12)NC(=O)C[C@H](CO)NC(=O)[C@@H]1CCCC[C@H]1N
- AC50 (Cytochrome P450 2C9): 31.6 µM (inconclusive)

SMILES: COC(=O)Cn1ccc(N(C)C)c(C#N)c1=O
- IC50 [4]: 4.07 µM (active)
- IC50 [5]: 2.89 µM (active)

SMILES: COc1cccc(NC(=O)Nc2nc(-c3ccc(OC)c(OC)c3)cs2)c1
- EC50 (BJ [8]): 5.89 µM (active)
- EC50 (BJ [9]): 8.03 µM (active)
- EC50 (BJ [10]): 9.04 µM (inconclusive)
- EC50 [11]: 5.56 µM (active)
- AC50 (Paired box protein Pax-8): 7.88 µM (active)
- AC50 [12]: 12.3 µM (active)

SMILES: c1cn(C23CC4CC(CC(C4)C2)C3)cn1
- IC50 [4]: 7.43 µM (active)
- IC50 [5]: 3.57 µM (active)

SMILES: O=C1CCCC2=C1C(Cc1ccccc1)C1=C(CCCC1=O)O2
- EC50 (cells [6]): > 350 µM (not active)
- EC50 (cells [7]): > 350 µM (not active)

SMILES: Nc1cc(-c2ccccc2)nn1S(=O)(=O)c1ccc(F)cc1
- AC50 [13]: 59.6 µM (active)
- AC50 [14]: 3.4 µM (active)
- AC50 [15]: 3.99 µM (active)

SMILES: CC1CN(c2nc3ccccn3c(=O)c2/C=C(\C#N)C(=O)N2CCOCC2)CC(C)O1 (stereo not drawn)
- EC50 (cells [6]): > 350 µM (not active)
- EC50 (cells [7]): > 350 µM (not active)

SMILES: COc1ccc(-c2ccc(C(=O)O)o2)c([N+](=O)[O-])c1
- IC50 [1]: > 50 µM (not active)

SMILES: CN(C)CCCNc1nc2cc(-c3cccc(C(F)(F)F)c3)sc2c(=O)n1C
- AC50 [16]: 7.9 µM (active)

SMILES: Cc1ccccc1NC(=O)c1ccc(C)c(S(=O)(=O)NCc2cccnc2)c1
- IC50 [4]: 9.77 µM (active)
- IC50 [5]: 5.77 µM (active)

SMILES: COC(=O)C1(C(=O)OC)C[C@H](c2ccc(OC)cc2)N(Cc2ccccc2OC)[C@@H]1c1cccs1
- AC50 [13]: 2.05 µM (active) and 2.55 µM (active)
- AC50 [17]: 4.03 µM (active) and 2.19 µM (active)
- AC50 [14]: 4.05 µM (active) and 2.64 µM (active)

SMILES: COC(=O)C1(C(=O)OC)C[C@H](c2ccccc2)N(Cc2ccccc2OC)[C@@H]1c1ccccc1
- AC50 [13]: 1.65 µM (active)
- AC50 [17]: 1.75 µM (active)
- AC50 [14]: 3.26 µM (active)
- AC50 [15]: 2.41 µM (active)

SMILES: CCC(=O)N(C)C[C@@H]1Oc2cc(C#Cc3ccccc3)ccc2S(=O)(=O)N([C@H](C)CO)C[C@H]1C
- AC50 [13]: 7.15 µM (active)
- AC50 [17]: 1.58 µM (active)
- AC50 [15]: 54.8 µM (active)

SMILES: O=C(Cc1ccccn1)N1CCCCN2[C@@H](CO)[C@@H](c3ccc(-c4ccccc4F)cc3)[C@@H]2C1
- AC50 (Paired box protein Pax-8): 57 µM (active)
- AC50 [12]: 46.2 µM (active)

SMILES: NC1(N2SC(S)=C3CCCC=C32)CCCCC1
- AC50 [16]: 12.1 µM (active)

SMILES: C=CC[N@@+]12CC[C@]34c5ccccc5N5/C=C6\C7N(/C=C(\C53)[C@@H](C[C@@H]41)/C(=C/CO)C2)c1ccccc1[C@@]71CC[N@@+]2(CC=C)C/C(=C\CO)[C@@H]6C[C@@H]12 (stereo partly drawn)
- AC50 [16]: 16.5 µM (active)

SMILES: OC[C@@H]1[C@H](c2ccc(C3=CCCCC3)cc2)[C@@H](CNC2CCCC2)N1CC1CC1
- AC50 [18]: 1.61 µM (active)
- AC50 [19]: 21.9 µM (active)

SMILES: COc1cccc(S(=O)(=O)Nc2ccc3c(c2)[C@@H]2C[C@H](CC(=O)NCc4ccccc4F)O[C@@H](CO)[C@@H]2O3)c1
- AC50 [18]: 5.32 µM (active)
- AC50 [19]: > 39 µM (inactive)

SMILES: CCCN(C)C[C@H]1Oc2ncc(C#Cc3ccc(OC)cc3)cc2C(=O)N([C@@H](C)CO)C[C@H]1C
- AC50 [18]: 2.78 µM (active)
- AC50 [19]: 28.8 µM (active)

SMILES: COc1ccc2c3c(n(C)c2c1)[C@@H](CO)N(Cc1ccc(F)cc1)CC31CCN(CC2CC2)CC1
- AC50 [18]: 3.48 µM (active)
- AC50 [19]: > 39 µM (inactive)

SMILES: Cc1nc2sccn2c(=O)c1CCN1CCC(=C(c2ccc(F)cc2)c2ccc(F)cc2)CC1 [RITANSERIN]
- EC50 [20]: > 20 µM (not active)
- EC50 [21]: > 20 µM (not active)
- AC50 [22]: 6.23 µM (active)
- IC50 [23]: > 20 µM (inactive)
- AC50 (Cytochrome P450 3A4): 20 µM (inconclusive)
- AC50 (Cytochrome P450 2C9): 25.1 µM (inconclusive)
